Assay results reported in patent publication US20230302014A1, “USES OF GLUCOCORTICOID RECEPTOR (GR) ANTAGONIST AND ANDROGEN RECEPTOR (AR) DEGRADER COMBINATIONS” (ORIC Pharmaceuticals, Inc., priority 2020, published 2023).

Key:
Assay type in all cases: cell-based, Human
[1] = system: AR and GR target genes in CWR22PC cells; test: End of study (EOS) biomarker analysis by RT-qPCR; conditions: CSS media, day 21 EOS, 0.1 nM R1881 + 1 µM ARV-110, + 30 nM dexamethasone, + 0.5 µM compound 1
Protocol: (§1) CWR22PC cells were seeded at a density of 2 × 10^5 cells/well in 6-well plates (Corning# 3516) in 2 mL of RPMI-1640 media supplemented with 10% charcoal-stripped serum (CSS) in duplicate. 24 hours later, cells were treated with 100 pM R1881, 30 nM dexamethasone, 0.5 µM compound 1, 1 µM of ARD1 or ARD2, or combinations thereof as indicated. Fresh media containing the indicated treatment was replaced every 5-7 days. Cell supernatant was collected on Day 12 and 19 and stored at -80° C. for PSA AlphaLISA assay. Cell images were taken on Day 12 and 19 using Leica DMi8 microscope (LEICA MICROSYSTEMS, INC. IL) with a 10X magnification. Cells were then trypsinized and cell numbers in each treatment group were counted three times, average counts were plotted with GraphPad Prism 8. Cell pellets were washed once with 1XPBS and then lysed in 600 µL RLT RNA lysis buffer and stored at -80° C. RNA was extracted for end of study (EOS) biomarker analysis for which the detailed procedures are described in the section RNA Extraction and RT-qPCR analysis.
(§2) Adherent cells or cell pellets harvested for mRNA analysis were first washed once with PBS and then resuspended in 600 µL of RLT lysis buffer (Qiagen Inc.) supplemented with 1% of betamercaptoethanol. RNA was extracted by QIAcube using the RNeasy Mini QIAcube kit (Qiagen#74116) according to manufacturer’s instructions. The extracted RNA samples were then quantified using a Nanodrop 8000 Spectrophotometer. RT-qPCR reactions were set up in triplicate using 3 µL of 3 ng/ µL of RNA in 7 µL of pre-mixed SensiFAST™ SYBR No-ROX One-Step Kit reagents (BIOLINE# BIO-98005). The RT-qPCR reactions were run on a Bio-Rad CFX384 Real-Time PCR System and data was plotted with GraphPad Prism 8 software.
CWR22PC cells were seeded at a density of 2 × 10^5 cells/well in 6-well plates (Corning# 3516) in 2 mL of RPMI-1640 media supplemented with 10% charcoal-stripped serum (CSS) in duplicate. […] Cells were then trypsinized and cell numbers in each treatment group were counted three times, average counts were plotted with GraphPad Prism 8. […]

[2] = system: GR target genes GILZ, PER1, KLF9, SGK1; test: RT-qPCR of GR target genes after time-dependent AR degrader treatment; conditions: LNCaP and CWR22PC cells; 100 nM degrader; 30 nM dexamethasone; 0, 6, 10, 13, 15 days
Protocol: as §2

[3] = system: GR mRNA; test: RT-qPCR of GR mRNA after time-dependent AR degrader treatment; conditions: 30 nM dexamethasone, up to 15 days
Protocol: 5 million of LNCaP and CWR22PC cells per dish were plated in five 15-cm dishes in 20 mL of RPMI-1640 media supplemented with 10% charcoal-stripped serum (CSS) and cultured at 37° C. for 24 hours. Cells were treated with 30 nM of dexamethasone and with 100 nM of ARD1 or ARD2 and maintained at 37° C. until harvest. On Day 0, 6, 10, 13, and 15, cells were trypsinized, cell pellets were washed with 1XPBS and then divided for mRNA and protein preparation.
as §2
2 million of LNCaP and CWR22PC cells per dish were plated in five 10-cm dishes in 10 mL of RPMI-1640 media supplemented with 10% charcoal-stripped serum (CSS) and cultured at 37° C. for 24 hours. […]

[4] = system: CWR22PC cells; test: Cell growth (cell number) of prostate cancer cells under long-term treatment; conditions: CWR22PC; CSS media; 21 days; 0.1 nM R1881 + 1 µM ARV-110, + 30 nM dexamethasone, + 0.5 µM compound 1
Protocol: as §1
The impact of ARD1 and ARD2 on the growth of prostate cancer cells was explored. CWR22PC cells were plated in charcoal-stripped serum (CSS) media and treated with vehicle or 0.1 nM R1881 (synthetic AR ligand) without or with 1 µM of ARD1 or ARD2. Media with treatments were replaced every 5-7 days and cells were maintained at 37° C. for 22 days. Supernatant of each group was harvested at day 22 to measure PSA secretion by PSA AlphaLISA assays.
as §1, with “24 hours later, cells were treated with 100 pM R1881, 30 nM dexamethasone, 0.5 µM compound 1, 1 µM of ARD1 or ARD2, or combinations thereof as indicated.” left out, “15” for “12”, “21” for “19”, “assay.” for “assay. Cell images were taken on Day 12 and 19 using Leica DMi8 microscope (LEICA MICROSYSTEMS, INC. IL) with a 10X magnification.”

[5] = system: AR and/or GR target genes KLK4, KLF9, FKBP5, PER1, SGK1; test: Biomarker analysis by RT-qPCR, 48 hours; conditions: CWR22PC and 22Rv1 cells, 0.1 nM R1881, 1 µM degrader
Protocol: CWR22PC and 22RV1 cells were seeded at a density of 2 × 10^5 cells/well in 6-well plates in 2 mL of RPMI-1640 media supplemented with 10% charcoal-stripped serum (CSS). Cells were treated with 100 pM R1881, 30 nM dexamethasone, 0.5 µM compound 1, 1 µM of ARD1 or ARD2, or combinations thereof as indicated and maintained at 37° C. 48 hours later, media was removed, and cells were washed once with PBS and then harvested for mRNA analysis.
as §2
CWR22PC and 22Rv1 cells were seeded at a density of 2 × 10^5 cells/well in 6-well plates in 2 mL of RPMI-1640 media supplemented with 10% charcoal-stripped serum (CSS). […] 48 hours later, media was removed, and cells were washed once with PBS and then harvested for mRNA analysis.

[6] = system: PSA; test: PSA AlphaLISA assay of cell supernatant (PSA secretion); conditions: CWR22PC; CSS media; 21 days; 0.1 nM R1881 + 1 µM ARV-110, + 30 nM dexamethasone, + 0.5 µM compound 1

N#Cc1ccc(O[C@H]2CC[C@H](NC(=O)c3ccc(N4CCC(CN5CCN(c6cc7c(cc6F)C(=O)N(C6CCC(=O)NC6=O)C7=O)CC5)CC4)nn3)CC2)cc1Cl (stereo partly drawn) [ARV-110, N-[trans-4-(3-chloro-4-cyanophenoxy)cyclohexyl]-6-[4-[[4-[2-(2,6-dioxo-3-piperidinyl)-6-fluoro-2,3-dihydro-1,3-dioxo-1H-isoindol-5-yl]-1-piperazinyl]methyl]-1-piperidinyl]-3-pyridazinecarboxamide]
R1881-induced target gene (biomarker) expression [1]: blunts
expression of GR target genes including GILZ, PER1, KLF9, and SGK1 [2]: most of the GR target genes are upregulated in a time dependent manner
GR transcript levels ([3]; CWR22PC cells (moderate GR pre-treatment), 100 nM degrader): minimal
upregulation of GR mRNA levels ([3]; GR-negative LNCaP cells, 100 nM ARV-110): ~ 7 fold
R1881-induced cell growth [4]: blunts
expression induction by R1881 of AR target FKBP5 [5]: completely inhibited
expression induction by R1881 of AR target KLK4 [5]: completely inhibited
R1881-induced PSA secretion [6]: blunts
